Reference: patent US9789102B2, “H3 receptor antagonist for use in the treatment of alzheimer's disease” (SANOFI, priority 2012, dated 2017)

Legend:
[1] = test system: protein tau phosphorylation at AD-2 epitope; assay: Western blot of tau phosphorylation at AD-2 epitope after two-week administration (Example 2); format: in vivo; details: THY-Tau22 mice
Procedure: For immunoblot analysis, frozen mouse tissues (either hippocampus or cortex) were homogenized using a Precellys 24 tissue homogenizer in 350 μl RIPA buffer from Cell Signaling (20 mM Tris-HCl (pH 7.5), 150 mM NaCl, 1 mM Na2 EDTA, 1 mM EGTA, 1% NP-40, 1% sodium deoxycholate, 2.5 mM sodium pyrophosphate, 1 mM beta-glycerophosphate, 1 mM Na3VO4, 1 μg/ml leupeptin) to which proteases inhibitors (Sigma cocktail 1% v/v) and phosphatases inhibitors (okadaic acid 1 μM, sodium fluoride 100 mM) were added. After centrifugation, 16000×g 4° C. for 10 minutes, protein content in supernatants was determined with BioRad DC Protein Assay kit, using BSA as a standard. […] Tau protein was detected using the following mouse antibody: AD-2 1/20.000^e (Biorad, 56484) which recognizes tau protein phosphorylated on Ser396 and Ser404. […]
Following incubation with primary antibodies, blots were rinsed in TBS Tween 0.1% and incubated for 1 hour at room temperature in an anti-mouse IgG horseradish peroxidase (HRP)-linked secondary antibody 1/10,000^e (GE healthcare, NA9310) diluted in 5% non-fat dry milk in TBS Tween 0.1%. […] Quantification of immunoreactive signal was performed using Multigauge V3.0 software (FUJIFILM). […]

[2] = test system: protein tau hyperphosphorylation on AT-8 (pSer199-202/Thr205) epitope; assay: AT8 immunohistochemistry with quantitative image analysis after six months in food; format: in vivo, THY-Tau22 mice; details: for protein tau phosphorylation on AT-8 epitope in cortex, vs vehicle: n=9; for decrease of the number of AT8-positive neuronal cells, cortex: significant
Source text: 2-(Cyclohexylmethyl)-N-{2-[(2S)-1-methylpyrrolidin-2-yl]ethyl}-1,2,3,4-tetrahydroisoquinoline-7-sulfonamide difumarate monohydrate was administrated as a supplement in food at doses of 0.00034%, 0.0034% and 0.034% for six months in THY-Tau22 and wild type mice as follows: • Tg Veh (n=17) • Tg Active Ingredient—0.034% (n=17) • Tg Active Ingredient—0.0034% (n=17) • Tg Active Ingredient—0.00034% (n=17) • WT Veh (n=17) • WT Active Ingredient—0.034% (n=17) • WT Active Ingredient—0.0034% (n=17) • WT Active Ingredient—0.00034% (n=17) • WT groups treated with Active Ingredient are not used in the biochemical and histological studies.
After mice were decapitated, brains were removed and one hemibrain (used for histopathological studies) was immersion-postfixed for seven days at 4° C. with 4% formaldehyde (Carlo Erba/code 415691). The other hemibrain was prepared for biochemical quantitative measurements.
Post-fixed hemibrains were incubated in phosphate-buffered saline (PBS, P 3813-10PAK, Sigma), transferred to a 20% sucrose solution (code 27480.294—Prolabo) for 48 hours at 4° C. to ensure good cryopreservation of tissues during subsequent freezing. For freezing, hemibrains were immersed for one minute in isopentane solution (Ref. No. 24872-323—Prolabo) cooled with dry ice to between −25° C. and −30° C. and then stored at −25° C.
The entire hemibrains were cut with a cryostat (Microm, HM560). Serial sagittal brain tissue sections were collected onto Superfrost plus microscope glass slides (VWR) and then stored at −20° C. (sections of 20 μm of thickness), or placed in PBS-sodium azide 0.1% (S-2002, Sigma) containing wells to avoid any contamination and stored at 4° C. (sections of 30 μm of thickness).
Hyperphosphorylated microtubule-associated protein tau is the major component of the paired helical filament. Phosphorylation-dependent anti-tau antibodies can be used to identify specific amino acids that are phosphorylated in tau from normal brain and AD brain. For example, the monoclonal antibody, AT8, is widely used. Antibody that can detect the phosphorylated serine 202 and the phosphorylated threonine 205 epitopes of phosphorylated tau (AT8 epitope (M. Goedert et al., Neuroscience Letters, (1995) 189, 3, pp. 167-169)).
An immunohistochemical protocol using the AT8 antibody and based upon the avidin-biotin horseradish peroxidase method was applied on 30 μm free-floating sections. The detailed protocol is as follows:
The following reagents are used: 0.1M PBS buffer in 1 liter of H2O (2.23 g of NaH2PO4, 2H2O (Prolabo Ref. No. 33 616.262), 29 g of Na2HPO4, 12 H2O (Prolabo Ref. No. 28 028.298), 9 g of NaCl (Prolabo Ref. No. 27 810.295)); PBS-Triton (0.15%) buffer Triton×100 (Sigma Ref. No. 23 479-9) (PBS-T) (1 l of 0.1M PBS buffer, 1.5 ml of Triton); 0.2M PBS buffer in 1 liter of H2O (4.46 g of NaH2PO4, 2H2O, 58 g of Na2HPO4, 12H2O, 18 g of NaCl); 30% H2O2 (Sigma Ref. No. H 1009); 3,3′-diaminobenzidine tetrahydrochloride (Sigma Ref. No. D9015, 100 mg stored at −20° C.); Vectastain® ABC Kit (Ref. No. PK 4000, Vector); BSA: bovine serum albumin (Sigma Ref. No. A8022).
Sections were preincubated for 3×10 minutes in 0.1 M-PBS-0.15% triton solution and then in 0.1M-PBS-1.5% hydrogen peroxide-50% methanol at room temperature for 30 minutes. After 3 washings in 0.1 M-PBS-0.15% triton, they were further incubated in blocking buffer [i.e., in BSA diluted at 10% in 0.01 M PBS] for 30 minutes. They were incubated at room temperature overnight with mouse anti-human PHF-Tau monoclonal antibody (clone AT8, Thermo Science, MN1020, dilution 1/500 in 0.1M PBS-0.05% Triton) and then with the secondary antibody (anti-mouse IgG biotinylated whole antibody from goat, Amersham, RPN1177, dilution 1/500 in 0.1M PBS-0.05% Triton) for 1 h 30. They were finally incubated in peroxidase-coupled avidin complex (Vectastain ABC kit, Vector Laboratories, dilution 1/400 in 0.1M PBS) for 30 minutes. […]

CN1CCC[C@H]1CCNS(=O)(=O)c1ccc2c(c1)CN(CC1CCCCC1)CC2 [2-(cyclohexylmethyl)-N-{2-[(2S)-1-methylpyrrolidin-2-yl]ethyl}-1,2,3,4-tetrahydroisoquinoline-7-sulfonamide difumarate monohydrate]
effect on protein tau phosphorylation at AD-2 epitope in the hippocampus ([1]; 0.002% in drinking water): did not elicit any effect
effect on protein tau phosphorylation at AD-2 epitope in the hippocampus ([1]; 0.02% in drinking water): did not elicit any effect
protein tau phosphorylation on AT-8 epitope in cortex, vs vehicle ([2]; 0.0034% in food, six months): statistical significant decrease
intensity of AT8-immunostaining within neuronal cell bodies and fibers, cortex ([2]; 0.0034% in food, six months, qualitatively observed): decrease
decrease of the number of AT8-positive neuronal cells, cortex ([2]; 0.0034% in food, six months): −47%
protein tau phosphorylation on AT-8 epitope in cortex, vs vehicle ([2]; 0.034% in food, six months): statistical significant decrease
decrease of the number of AT8-positive neuronal cells, cortex ([2]; 0.034% in food, six months): −32%
AT8-positive neuronal cell number in other ROIs (amygdala, CA1 and dentate gyrus hippocampal subareas) ([2]; six months in food): No significant decrease
